Patent US10787447B2, “Pharmaceutical compounds” (Heptares Therapeutics Limited, priority 2018, dated 2020)
Read-outs that look alike come from different tables or passages of the source.

Tests used:
Format in all cases: cell-based
[1] = target: T1, human muscarinic M1 receptor (Homo sapiens, UniProt P11229); experiment: Alphascreen Surefire phospho-ERK1/2 functional assay, M1; details: for % Emax cf. ACh, M1: Emax relative to ACh; for EC50: phospho-ERK1/2
T1 sequence (P11229 1-460): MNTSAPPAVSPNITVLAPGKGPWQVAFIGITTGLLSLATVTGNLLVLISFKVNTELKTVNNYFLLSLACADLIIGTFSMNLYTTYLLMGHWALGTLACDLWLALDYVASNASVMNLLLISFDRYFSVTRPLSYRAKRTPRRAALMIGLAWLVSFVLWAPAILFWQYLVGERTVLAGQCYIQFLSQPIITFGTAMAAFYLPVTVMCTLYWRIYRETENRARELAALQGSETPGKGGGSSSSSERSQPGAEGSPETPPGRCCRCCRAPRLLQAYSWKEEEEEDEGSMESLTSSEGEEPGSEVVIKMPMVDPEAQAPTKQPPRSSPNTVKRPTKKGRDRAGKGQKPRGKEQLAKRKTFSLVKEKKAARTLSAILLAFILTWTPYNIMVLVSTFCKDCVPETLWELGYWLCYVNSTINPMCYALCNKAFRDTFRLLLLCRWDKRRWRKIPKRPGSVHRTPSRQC
Experimental: (§1) Functional assays were performed using the Alphascreen Surefire phospho-ERK1/2 assay (Crouch & Osmond, Comb. Chem. High Throughput Screen, 2008). ERK1/2 phosphorylation is a downstream consequence of both Gq/11 and Gi/o protein coupled receptor activation, making it highly suitable for the assessment of M1, M3 (Gq/11 coupled) and M2, M4 receptors (Gi/o coupled), rather than using different assay formats for different receptor subtypes. CHO cells stably expressing the human muscarinic M1, M2, M3 or M4 receptor were plated (25K/well) onto 96-well tissue culture plates in MEM-alpha+10% dialysed FBS. Once adhered, cells were serum-starved overnight. Agonist stimulation was performed by the addition of 5 μL agonist to the cells for 5 min (37° C.). Media was removed and 50 μL of lysis buffer added. After 15 min, a 4 μL sample was transferred to 384-well plate and 7 μL of detection mixture added.
For the vast majority of examples at least two diastereomers exist and these have been separated, unless otherwise stated, using the techniques of reversed phase HPLC, chiral HPLC or chiral SFC. Isomer assignment (Isomer 1, Isomer 2, etc.) is based on the retention time of the compound using the separation technique that was performed in the final purification step. By implication, this could be reversed phase HPLC, chiral HPLC or chiral SFC retention time, and this will vary from compound to compound.

[2] = target: T2, human muscarinic M2 receptor (Homo sapiens, UniProt P08172); experiment: Alphascreen Surefire phospho-ERK1/2 functional assay, M2; details: for % Emax cf. ACh, M2: CHO cells stably expressing human M2, Emax relative to ACh; for EC50: pEC50 M2, CHO cells stably expressing human M2, phospho-ERK1/2
T2 sequence (P08172 1-466): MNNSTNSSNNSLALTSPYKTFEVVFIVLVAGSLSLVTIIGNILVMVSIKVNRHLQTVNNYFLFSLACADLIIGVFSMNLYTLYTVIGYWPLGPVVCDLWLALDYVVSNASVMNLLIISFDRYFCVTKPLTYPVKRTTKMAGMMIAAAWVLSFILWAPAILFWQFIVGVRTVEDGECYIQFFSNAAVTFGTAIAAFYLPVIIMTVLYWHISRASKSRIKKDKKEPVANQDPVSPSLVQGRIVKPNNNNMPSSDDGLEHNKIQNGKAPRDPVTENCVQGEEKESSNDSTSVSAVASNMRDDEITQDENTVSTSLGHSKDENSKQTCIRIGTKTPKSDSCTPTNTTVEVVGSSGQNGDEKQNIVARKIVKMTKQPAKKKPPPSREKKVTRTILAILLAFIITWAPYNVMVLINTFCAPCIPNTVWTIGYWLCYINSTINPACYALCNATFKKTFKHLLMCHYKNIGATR
Experimental: as §1, with “ERK1/2” for “Functional assays were performed using the Alphascreen Surefire phospho-ERK1/2 assay (Crouch & Osmond, Comb. Chem. High Throughput Screen, 2008). ERK1/2”
(§2) Isomer assignment (Isomer 1, Isomer 2, etc.) is based on the retention time of the compound using the separation technique that was performed in the final purification step. By implication, this could be reversed phase HPLC, chiral HPLC or chiral SFC retention time, and this will vary from compound to compound.

[3] = target: T3, human muscarinic M3 receptor (Homo sapiens, UniProt P20309); experiment: Alphascreen Surefire phospho-ERK1/2 functional assay, M3; details: for % Emax cf. ACh, M3: CHO cells stably expressing human M3
T3 construct: expressed in transfected cells
Experimental: as §1, with “ERK1/2” for “Functional assays were performed using the Alphascreen Surefire phospho-ERK1/2 assay (Crouch & Osmond, Comb. Chem. High Throughput Screen, 2008). ERK1/2”
as §2

[4] = target: T4, human muscarinic M4 receptor (Homo sapiens, UniProt P08173); experiment: Alphascreen Surefire phospho-ERK1/2 functional assay, M4; details: for % Emax cf. ACh, M4: Emax relative to ACh; for EC50: phospho-ERK1/2
T4 sequence (P08173 1-479): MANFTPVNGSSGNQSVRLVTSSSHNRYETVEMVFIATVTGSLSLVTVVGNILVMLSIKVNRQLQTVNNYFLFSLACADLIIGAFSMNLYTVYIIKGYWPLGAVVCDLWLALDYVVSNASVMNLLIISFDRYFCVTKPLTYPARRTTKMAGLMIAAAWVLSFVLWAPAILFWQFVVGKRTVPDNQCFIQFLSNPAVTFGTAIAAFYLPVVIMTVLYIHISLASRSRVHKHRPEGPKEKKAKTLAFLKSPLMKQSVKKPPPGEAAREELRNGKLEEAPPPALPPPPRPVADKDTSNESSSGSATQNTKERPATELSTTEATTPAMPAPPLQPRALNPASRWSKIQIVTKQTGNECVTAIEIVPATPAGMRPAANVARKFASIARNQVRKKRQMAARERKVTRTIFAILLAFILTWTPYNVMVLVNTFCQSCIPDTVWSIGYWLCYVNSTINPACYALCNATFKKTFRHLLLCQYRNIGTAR
Experimental: as §1, with “ERK1/2” for “Functional assays were performed using the Alphascreen Surefire phospho-ERK1/2 assay (Crouch & Osmond, Comb. Chem. High Throughput Screen, 2008). ERK1/2”
as §2

[5] = pEC50 M1, CHO cells stably expressing human M1
[6] = pEC50 M4, CHO cells stably expressing human M4
[7] = CHO cells stably expressing human M4
[8] = CHO cells stably expressing human M1, read-out: pEC50 M1 (converted)
[9] = CHO cells stably expressing human M4, read-out: pEC50 M4 (converted)

T3 sequence (P20309 whole entry): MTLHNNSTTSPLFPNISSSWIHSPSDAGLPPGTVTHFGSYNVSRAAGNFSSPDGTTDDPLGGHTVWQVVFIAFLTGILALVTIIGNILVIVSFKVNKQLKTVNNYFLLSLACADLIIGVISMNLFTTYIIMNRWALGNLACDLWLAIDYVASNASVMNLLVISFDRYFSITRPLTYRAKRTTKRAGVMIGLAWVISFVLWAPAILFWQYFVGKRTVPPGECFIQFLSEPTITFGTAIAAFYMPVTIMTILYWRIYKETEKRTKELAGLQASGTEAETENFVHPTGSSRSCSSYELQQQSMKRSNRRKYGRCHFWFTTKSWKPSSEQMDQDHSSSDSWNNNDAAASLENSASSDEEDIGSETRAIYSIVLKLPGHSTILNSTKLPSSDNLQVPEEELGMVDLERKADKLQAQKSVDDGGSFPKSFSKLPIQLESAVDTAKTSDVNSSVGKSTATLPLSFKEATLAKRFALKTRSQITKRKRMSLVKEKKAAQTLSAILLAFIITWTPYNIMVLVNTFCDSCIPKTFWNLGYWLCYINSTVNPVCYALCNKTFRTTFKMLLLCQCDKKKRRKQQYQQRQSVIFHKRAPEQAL

Q: How did the “% Emax cf. ACh, M1” value ([1]; CHO cells stably expressing human M1, listed as 4-1 Isomer 2) turn out when `CCOC(=O)N1C2COCC1CC(N1CCC(N3CC(F)(F)C[C@@H]3CO)CC1)C2` (single isomer, unassigned) [Example 4-1 Isomer 2] was run?
A: 47%

Q: What about the EC50 [1, 5] of the same molecule?
A: 398 nM

Q: And the “% Emax cf. ACh, M2” value ([2]; listed as 4-1 Isomer 2)?
A: 17%

Q: And the EC50 [2]?
A: > 20000 nM

Q: What about the “% Emax cf. ACh, M3” value ([3]; Emax relative to ACh, listed as 4-1 Isomer 2) of the same molecule?
A: 4%

Q: What about the “% Emax cf. ACh, M4” value ([4]; CHO cells stably expressing human M4, listed as 4-1 Isomer 2) of the same molecule?
A: 59%

Q: What about the EC50 [4, 6] of the same molecule?
A: 100 nM

Q: For `CCOC(=O)N1C2COCC1CC(N1CCC(c3ccc[nH]c3=O)CC1)C2` (single isomer, unassigned) [Example 2-3 Isomer 1, Ethyl 7-[4-(2-oxo-1,2-dihydropyridin-3-yl)piperidin-1-yl]-3-oxa-9-azabicyclo[3.3.1]nonane-9-carboxylate], which “% Emax cf. ACh, M1” value ([1]; CHO cells stably expressing human M1, listed as 2-3 Isomer 1) is on record?
A: 77%

Q: And the EC50 [1, 5]?
A: 195 nM

Q: What about the “% Emax cf. ACh, M2” value ([2]; listed as 2-3 Isomer 1) of the same molecule?
A: 45%

Q: And the EC50 [2]?
A: 288 nM

Q: And the Emax ([3]; CHO, read-out: % Emax cf. ACh, M3, CHO cells stably expressing human M3, Emax relative to ACh)?
A: 9%

Q: What about the EC50 ([3]; pEC50 M3, CHO cells stably expressing human M3, phospho-ERK1/2) of the same molecule?
A: > 20 µM

Q: What about the “% Emax cf. ACh, M4” value ([4]; CHO cells stably expressing human M4, listed as 2-3 Isomer 1) of the same molecule?
A: 99%

Q: And the EC50 [4, 6]?
A: 6.46 nM

Q: Which results are given for `CCOC(=O)N1C2COCC1CC(N1CCC3(CC1)C(=O)Nc1ccccc13)C2` (single isomer, unassigned) [Example 5-5 Isomer 2, Ethyl 7-(2-oxo-1,2-dihydro-1′H-spiro[indole-3,4′-piperidin]-1′yl)-3-oxa-9-azabicyclo[3.3.1]nonane-9-carboxylate]?
A: % Emax cf. ACh, M1 ([1]; CHO cells stably expressing human M1, listed as 5-5 Isomer 2): 108%; EC50 [1, 5]: 53.7 nM; % Emax cf. ACh, M2 ([2]; listed as 5-5 Isomer 2): 67%; EC50 [2]: 75.9 nM; % Emax cf. ACh, M4 [4, 7]: 108%; EC50 [4, 6]: 8.51 nM

Q: What does the source list for `CCOC(=O)N1C2COCC1CC(N1CCC(N(CC3(C)CCC3)C(C)=O)CC1)C2` (single isomer, unassigned) [Example 6-4 Isomer 1]?
A: % Emax cf. ACh, M1 ([1]; CHO cells stably expressing human M1, listed as 6-4 Isomer 1): 103%; EC50 [1, 5]: 14.5 nM; % Emax cf. ACh, M2 ([2]; listed as 6-4 Isomer 1): 33%; EC50 [2]: 363 nM; % Emax cf. ACh, M4 ([4]; CHO cells stably expressing human M4, listed as 6-4 Isomer 1): 80%; EC50 [4, 6]: 42.7 nM

Q: Which “% Emax cf. ACh, M3” value ([3]; Emax relative to ACh) does the source give for `CC(=O)OCC[N+](C)(C)C` [ACh] here?
A: 115%

Q: And the “% Emax cf. ACh, M4” value [4, 7]?
A: 110%

Q: For `CCOC(=O)N1C2COCC1CC(N1CCC3(CC1)OC(=O)NC3CC)C2` (single isomer, unassigned) [Example 5-4 Isomer 1b, Ethyl 7-(4-ethyl-2-oxo-1-oxa-3,8-diazaspiro[4.5]dec-8-yl)-3-oxa-9-azabicyclo[3.3.1]nonane-9-carboxylate], which “% Emax cf. ACh, M1” value ([1]; CHO cells stably expressing human M1, listed as 5-4 Isomer 1b) is on record?
A: 9%

Q: And the EC50 [1, 5]?
A: > 20000 nM

Q: What about the “% Emax cf. ACh, M4” value ([4]; CHO cells stably expressing human M4, listed as 5-4 Isomer 1b) of the same molecule?
A: 30%

Q: And the EC50 [4, 6]?
A: 316 nM

Q: `CCOC(=O)N1C2COCC1CC(N1CCC3(CC1)OC(=O)NC3CC)C2` (single isomer, unassigned) [Example 5-4 Isomer 2a, Ethyl 7-(4-ethyl-2-oxo-1-oxa-3,8-diazaspiro[4.5]dec-8-yl)-3-oxa-9-azabicyclo[3.3.1]nonane-9-carboxylate] was tested. Which “% Emax cf. ACh, M1” value ([1]; CHO cells stably expressing human M1, listed as 5-4 Isomer 2a) did it give?
A: 75%

Q: What about the EC50 [1, 5] of the same molecule?
A: 977 nM

Q: What about the “% Emax cf. ACh, M4” value ([4]; CHO cells stably expressing human M4, listed as 5-4 Isomer 2a) of the same molecule?
A: 61%

Q: And the EC50 [4, 6]?
A: 200 nM

Q: `CCOC(=O)N1C2COCC1CC(N1CCC(C(=O)NC3(C)CCC3)CC1)C2` (single isomer, unassigned) [Example 7-1 Isomer 1, Ethyl 7-{4-[(1-methylcyclobutyl)carbamoyl]piperidin-1-yl}-3-oxa-9-azabicyclo[3.3.1]nonane-9-carboxylate] was tested. Which “% Emax cf. ACh, M1” value ([1]; CHO cells stably expressing human M1, listed as 7-1 Isomer 1) did it give?
A: 91%

Q: What about the EC50 [1, 8] of the same molecule?
A: 380 nM

Q: What about the “% Emax cf. ACh, M4” value ([4]; CHO cells stably expressing human M4, listed as 7-1 Isomer 1) of the same molecule?
A: 76%

Q: What about the EC50 [4, 9] of the same molecule?
A: 324 nM

Q: What does the source list for `CCOC(=O)N1C2COCC1CC(N1CCC(C(=O)NC3(C)CCC3)CC1)C2` (single isomer, unassigned) [Example 7-1 Isomer 2, Ethyl 7-{4-[(1-methylcyclobutyl)carbamoyl]piperidin-1-yl}-3-oxa-9-azabicyclo[3.3.1]nonane-9-carboxylate]?
A: % Emax cf. ACh, M1 ([1]; CHO cells stably expressing human M1, listed as 7-1 Isomer 2): 62%; EC50 [1, 8]: 1740 nM; % Emax cf. ACh, M4 ([4]; CHO cells stably expressing human M4, listed as 7-1 Isomer 2): 54%; EC50 [4, 9]: > 20000 nM
